Results: patent US9139532B2, “Pyrazolyl guanidine F1F0-atpase inhibitors and therapeutic uses thereof” (Lycera Corporation, priority 2010, dated 2015)
pEC50, pIC50: −log10 of the molar value.

Key:
F1F0-ATPase = target: T1, F1F0-ATPase (Bos taurus, UniProt P13621); test: Inhibition of F1F0-ATPase activity in synthesizing ATP; type: biochemical; details: inhibition of ATP synthesis by F1F0-ATPase; read-out: ATP Syn IC50
T1 construct: from tissue

Ramos cells = test: Cytotoxicity in Ramos cells; type: cell-based; details: cytotoxicity in Ramos cells; read-out: Ramos Cell EC50

In the case of `CC(C)CN/C(=N/C(=O)c1cccc([S+](C)[O-])c1)Nc1cc(-c2ccc(F)cc2)n[nH]1` (centres unmarked) [Compound A-576], the pIC50 (F1F0-ATPase) was > 5.00 and the pEC50 (Ramos cells) was > 5.00.
